Here are results for 22 compounds from patent publication US11866407B2 (priority 2021, dated 2024).

Like-named read-outs stand apart in the source and are kept apart here. Residues, ends and D or L forms follow the SMILES beside them. *: point of attachment. Cbz = O=C(OCc1ccccc1)*; CH2F = FC*

One data set concerns the target SARS-CoV-2 M^pro (Severe acute respiratory syndrome coronavirus 2, UniProt P0DTD1). Kind of data set: FRET-based enzymatic assay, SARS-CoV-2 Mpro. The format is biochemical.
The target in another data set is PL^pro (Severe acute respiratory syndrome coronavirus 2, UniProt P0DTD1). Kind of data set: PLpro protease inhibition (Table 2). In kind it is biochemical, SARS-CoV-2.
The nature of data set [1]: Cytotoxicity in Vero E6 cells. The settings on record: African green monkey.
Data set [2] in a line: Cytotoxicity in Calu-3 cells. The format is cell-based. The settings on record: human.
The nature of data set [3]: in vitro. The following applies: African green monkey.
In data set [4] the test system is SARS-CoV-2. Put plainly: Antiviral activity in Calu-3 cells (Table 2). The settings on record: Severe acute respiratory syndrome coronavirus 2, Calu-3. The format is cell-based.
Data set [5] is described as follows: in vitro. The settings on record: human, Caco-2.
Data set [6] is described as follows: in vitro. The settings on record: human.
Another data set addresses T1, cathepsin L (Homo sapiens, UniProt P07711).
T1 construct: purchased EMD Millipore 219402
Kind of data set: Cathepsin L enzymatic assay. In kind it is biochemical. Here is the method: (§1) Calpain I, Cathepsin L and Cathepsin K enzymatic assays were carried as previously described.^33

A further data set concerns the target T2, calpain I (Homo sapiens, UniProt P07384).
T2 construct: purchased Sigma-Aldrich C6108
T2 sequence (P07384 1-714): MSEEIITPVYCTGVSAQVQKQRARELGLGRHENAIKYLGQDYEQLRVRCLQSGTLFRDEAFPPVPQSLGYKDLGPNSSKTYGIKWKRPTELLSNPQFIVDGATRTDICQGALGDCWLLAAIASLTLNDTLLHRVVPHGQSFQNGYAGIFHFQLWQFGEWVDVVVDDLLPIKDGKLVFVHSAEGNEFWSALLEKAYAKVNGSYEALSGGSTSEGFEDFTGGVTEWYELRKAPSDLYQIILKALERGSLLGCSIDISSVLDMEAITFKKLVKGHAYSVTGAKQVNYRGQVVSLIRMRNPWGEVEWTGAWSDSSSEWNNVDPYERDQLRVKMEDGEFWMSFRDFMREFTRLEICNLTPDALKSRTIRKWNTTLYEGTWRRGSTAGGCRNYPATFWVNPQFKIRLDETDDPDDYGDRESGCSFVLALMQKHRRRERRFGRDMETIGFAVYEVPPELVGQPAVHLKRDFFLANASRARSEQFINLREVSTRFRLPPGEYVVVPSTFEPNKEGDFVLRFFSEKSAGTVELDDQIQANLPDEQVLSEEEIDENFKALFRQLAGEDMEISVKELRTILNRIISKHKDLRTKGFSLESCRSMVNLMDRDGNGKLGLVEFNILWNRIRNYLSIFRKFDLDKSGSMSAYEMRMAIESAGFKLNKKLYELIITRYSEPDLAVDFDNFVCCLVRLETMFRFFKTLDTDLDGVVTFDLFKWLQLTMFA
T2 sequence (P04632 1-268 partner): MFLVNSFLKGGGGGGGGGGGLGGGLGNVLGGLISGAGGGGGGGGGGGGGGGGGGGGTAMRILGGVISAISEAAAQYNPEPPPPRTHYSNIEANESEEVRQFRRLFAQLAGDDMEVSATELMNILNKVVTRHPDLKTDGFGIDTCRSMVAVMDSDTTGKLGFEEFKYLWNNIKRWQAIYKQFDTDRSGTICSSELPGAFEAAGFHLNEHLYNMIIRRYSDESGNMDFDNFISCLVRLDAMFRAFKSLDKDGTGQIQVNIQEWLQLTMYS
Kind of data set: Calpain I enzymatic assay. The format is biochemical. As for the experimental part:
as §1

In a further data set the test system is HCoV-OC43. Put plainly: HCoV-OC43 plaque assay. The format is cell-based. The settings on record: Betacoronavirus 1, OC43, RD cells.
For the next data set, the system named is HCoV-229E. Put plainly: HCoV-229E CPE assay. In kind it is cell-based. The settings on record: Human coronavirus 229E.
The subject of data set [7] is M^pros from all seven human coronaviruses. Put plainly: Thermal shift binding assay (DSF). The following applies: indicating protein stabilization.
The subject of data set [8] is SARS-CoV-2. Put plainly: SARS-CoV-2 antiviral immunofluorescence assay. The settings on record: both cell lines (Vero E6 and Caco2-ACE2). The format is cell-based.
The next data set deals with HCoV-NL63. Kind of data set: HCoV-NL63 CPE assay. The format is cell-based. The settings on record: with vs without CP-100356.
The target in another data set is T3, caspase-3 (Homo sapiens, UniProt P42574).
T3 construct: purchased BioVision 1083-25
T3 sequence (P42574 29-175 limits assumed): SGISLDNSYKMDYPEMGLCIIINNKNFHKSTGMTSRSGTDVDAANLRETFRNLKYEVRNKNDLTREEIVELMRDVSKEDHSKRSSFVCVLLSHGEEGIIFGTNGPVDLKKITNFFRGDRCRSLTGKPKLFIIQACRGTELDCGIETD
T3 sequence (P42574 176-277 limits assumed): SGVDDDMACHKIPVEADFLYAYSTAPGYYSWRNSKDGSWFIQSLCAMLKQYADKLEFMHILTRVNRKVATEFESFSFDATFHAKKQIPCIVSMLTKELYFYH
Kind of data set: Caspase-3 enzymatic assay. In kind it is biochemical. As for the experimental part: Caspase-3 enzymatic assay was carried out as follows: 1 unit Caspase-3 protein was diluted into 1600 μl reaction buffer (20 mM HEPES pH7.4, 2 mM EDTA, 0.1% CHAPS and 5 mM DTT); 100 μl diluted protein was incubated with 1 μl various concentration of testing compounds for 30 min at 30° C.; the enzymatic reaction was initiated by adding 1 μl of 2 mM Ac-DEVD-AFC (Medchemexpress, Catalog #HY-P1005). The reaction was monitored a Molecular Devices SpectraMax iD3 plate reader with excitation at 400 nm and emission at 505 nm at 30° C. for 1 hour. The IC50 values were calculated as described in the previous section.

T1 sequence (P07711 114-333): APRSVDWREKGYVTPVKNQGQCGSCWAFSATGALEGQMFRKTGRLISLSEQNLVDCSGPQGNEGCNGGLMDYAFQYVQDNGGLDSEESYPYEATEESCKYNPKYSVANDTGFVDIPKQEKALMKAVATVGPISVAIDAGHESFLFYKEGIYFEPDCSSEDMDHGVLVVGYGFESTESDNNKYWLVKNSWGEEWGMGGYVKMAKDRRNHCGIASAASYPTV

As usually defined, the IC50 is the point on the concentration scale where inhibition reaches its midpoint. On SARS-CoV-2 M^pro, `CC(C)C[C@H](NC(=O)OCc1ccc(NC(=O)CCC(=O)NCCOCCOCCNc2cccc3c2C(=O)N(C2CCC(=O)N(C)C2=O)C3=O)cc1)C(=O)N[C@@H](C[C@@H]1CCNC1=O)C(=O)C(=O)NC1CC1` (stereo partly shown) came in with an IC50 of 110 nM.
Turning to `CC(C)C[C@H](NC(=O)OCc1ccc(NC(=O)CCC(=O)NCCOCCOCCNc2cccc3c2C(=O)N(C2CCC(=O)NC2=O)C3=O)cc1)C(=O)N[C@@H](C[C@@H]1CCNC1=O)C(=O)C(=O)NC1CC1` (stereo partly shown), the IC50 is above 20000 nM on PL^pro and 110 nM on SARS-CoV-2 M^pro. The CC50 in data set [1] and in data set [2] was above 250000 nM in each case.
As for `C#CCCC(=O)Nc1ccc(COC(=O)N[C@@H](CC(C)C)C(=O)N[C@@H](C[C@@H]2CCNC2=O)C(=O)C(=O)NC2CC2)cc1`, the half-inhibitory concentration (IC50) at PL^pro was above 20000 nM; on SARS-CoV-2 M^pro, 150 nM. Further, the CC50 in data set [1] and in data set [2] was above 250000 nM throughout.
`O=C(NC1CC1)C(=O)[C@H](C[C@@H]1CCNC1=O)NC(=O)C1[C@H]2CCC[C@H]2CN1C(=O)OCc1ccccc1` (stereo partly shown): the CC50 in the data set “in vitro [3]” was above 250000 nM. This compound also showed an IC50 at SARS-CoV-2 M^pro of 130 nM.
With `CC1(C)[C@@H]2C(C(=O)N[C@@H](C[C@@H]3CCNC3=O)C(=O)C(=O)NC3CC3)N(C(=O)OCc3ccccc3)C[C@@H]21` (stereo partly shown), the CC50 in “in vitro [3]” is above 250000 nM. The midpoint of inhibition on SARS-CoV-2 M^pro, the IC50, lay at 200 nM.
One may read the EC50 as the concentration that produces a half-maximal response. Compound `CC(C)C[C@H](NC(=O)OCC1CCC(F)(F)CC1)C(=O)N[C@@H](C[C@@H]1CCNC1=O)C(=O)C(=O)NC1CC1` gave a CC50 in the data set “in vitro [3]” above 250000 nM. This compound had an EC50 in the data set on SARS-CoV-2 [4] of 2600 nM. In addition, the IC50 against SARS-CoV-2 M^pro was determined as 60 nM.
Regarding `O=C(N[C@H](C(=O)N[C@@H](C[C@@H]1CCNC1=O)C(=O)C(=O)NC1CC1)C1CCCCC1)OCc1ccccc1`, the IC50 on PL^pro was above 20000 nM; against SARS-CoV-2 M^pro, 380 nM.
The matching figures for `CC(C)C[C@H](NC(=O)[C@H](Cc1ccccc1)NC(=O)OCc1ccccc1)C(=O)N[C@@H](C[C@@H]1CCNC1=O)C(=O)C(=O)NC(C)C`: above 20000 nM and 130 nM.
As to `CC(C)C[C@H](NC(=O)[C@H](Cc1ccccc1)NC(=O)OCc1ccccc1)C(=O)N[C@@H](C[C@@H]1CCNC1=O)C(=O)C(=O)NCc1ccccc1`, the IC50 against PL^pro was above 20000 nM; against SARS-CoV-2 M^pro, 90 nM.
For the compound `CC(C)[C@H](NC(=O)OCc1ccccc1)C(=O)N[C@@H](C[C@@H]1CCNC1=O)C(=O)C(=O)NC1CC1`, half-maximal inhibition at SARS-CoV-2 M^pro (IC50) required 1290 nM.
With `O=C(N[C@@H](Cc1ccc(F)cc1)C(=O)N[C@@H](C[C@@H]1CCNC1=O)C(=O)C(=O)NC1CC1)OCc1ccccc1`, half-maximal inhibition on SARS-CoV-2 M^pro (IC50) required 5500 nM.
`O=C(N[C@@H](Cc1ccccc1)C(=O)N[C@@H](C[C@@H]1CCNC1=O)C(=O)C(=O)NC1CC1)OCc1ccccc1`: the CC50 in the data set “in vitro [5]” and in the data set “in vitro [6]” was above 100000 nM throughout. This compound also displayed an IC50 on SARS-CoV-2 M^pro of 780 nM.
As for `CC(C)C[C@H](NC(=O)OCc1ccccc1)C(=O)N[C@@H](C[C@@H]1CCNC1=O)C(=O)C(=O)NC1CC1`, the CC50 in “in vitro [5]” and in “in vitro [6]” was above 100000 nM throughout. In addition, at SARS-CoV-2 M^pro (read-out: SARS-CoV-2 M^pro IC50, Table 2), the IC50 was 45 nM.
The compound `CCOC(=O)/C=C/[C@H](C[C@@H]1CCNC1=O)NC(=O)[C@H](CC(C)C)NC(=O)OCc1ccccc1` showed an IC50 against SARS-CoV-2 M^pro of 1710 nM.
Turning to `CC(C)C[C@H](NC(=O)OCc1ccccc1)C(=O)N[C@@H](CC(C)C)C(=O)N[C@@H](C[C@@H]1CCNC1=O)C(=O)C(=O)NC1CC1`, it took 12 nM to reach half-maximal inhibition on SARS-CoV-2 M^pro (IC50).
As to `CC(C)C[C@H](NC(=O)[C@@H](NC(=O)OCc1ccccc1)C(C)C)C(=O)N[C@@H](C[C@@H]1CCNC1=O)C(=O)C(=O)NC1CC1`, the IC50 against SARS-CoV-2 M^pro turned out to be 14 nM.
On SARS-CoV-2 M^pro, `CC(C)C[C@H](NC(=O)[C@H](Cc1ccccc1)NC(=O)OCc1ccccc1)C(=O)N[C@@H](C[C@@H]1CCNC1=O)C(=O)C(=O)NC1CC1` gave an IC50 of 13 nM.
As to `O=C(N[C@@H](Cc1ccccc1)C(=O)N[C@@H](C[C@@H]1CCNC1=O)C(O)S(=O)(=O)[O][Na+])OCc1ccccc1` (stereo partly shown), the IC50 against SARS-CoV-2 M^pro was determined as 40 nM.
For `CC(C)C[C@H](NC(=O)OCc1ccccc1)C(=O)N[C@@H](CC1CCNC1=O)C(O)S(=O)(=O)O` (stereo partly shown) [GC-376], the IC50 on cathepsin L is 4.4 nM; at calpain I it was 74 nM.
Regarding `O=CC(CC1CCNC1=O)NC(=O)C1C2CCCC2CN1C(=O)OCc1ccccc1` (stereo not shown) [UAWJ9-36-1], the EC50 amounted to 46 nM in the data set on HCoV-OC43 and 170 nM with HCoV-229E. Further, the “melting temperature shift (ΔTm)” value in data set [7] is “significantly increased”. For the same compound, the “antiviral potency against SARS-CoV-2 relative to GC-376” value in the data set on SARS-CoV-2 [8] is reported as “less potent than GC-376”. In addition, the “antiviral activity against HCoV-NL63 in Vero E6 cells in the presence of P-gp inhibitor CP-100356” value in the data set with HCoV-NL63 is given as “increased”.
Consider `CC1(C)C2CN(C(=O)OCc3ccccc3)C(C(=O)NC(C=O)CC3CCNC3=O)C21` (stereo not shown) [UAWJ9-36-3], for which the EC50 worked out at 59 nM in the data set on HCoV-OC43 and 130 nM in the data set on HCoV-229E. Also, in the data set on HCoV-NL63, the “antiviral activity against HCoV-NL63 in Vero E6 cells in the presence of P-gp inhibitor CP-100356” value is reported as “increased”.
At caspase-3, `COC(=O)C[C@H](NC(=O)[C@H](C)NC(=O)[C@@H](NC(=O)OCc1ccccc1)C(C)C)C(=O)CF` [Z-VAD-FMK] (Cbz-Val-Ala-Asp(OMe)-CH2F) displayed an IC50 of 100 ± 40 nM.
